One block for each compound: values may come before it.
What was measured:
Assay in all cases: competitive isoTOP-ABPP
Type in all cases: binding
[1] = target: T1, GOLGB1 Golgin subfamily B member 1 (Homo sapiens, UniProt Q14789); conditions: for isoTOP-ABPP ratio, lysine Q14789_K103: 50 uM_231_sol_in vitro; for R value (DMSO/fragment) for probe 1 labeling: Q14789_K103; for R value (DMSO/fragment) for probe 1 labeling / isoTOP-ABPP ratio (R) at liganded lysine Q14789_K103 / isoTOP-ABPP reactivity ratio at lysine Q14789_K103: 50 uM, in vitro; for R value (DMSO/fragment) for probe 1 labeling / isoTOP-ABPP reactivity ratio at lysine Q14789_K103: 231 sol; for isoTOP-ABPP ratio (R) at liganded lysine Q14789_K103: sol, 231
T1 construct: isoTOP-ABPP experiments performed in cell lysates (in vitro); endogenous in cells; host or cells: soluble proteome of human cancer cell lines (MDA-MB-231, Ramos, Jurkat)
Summary of the method: (§1)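 Lysate + fragment (50 μM activated ester / 100 μM guanidinylating agent) or DMSO → 0.1 mM STP-alkyne, 1 h, RT → CuAAC to TEV tags (compound light, DMSO heavy) → LC-MS. R = heavy/light MS1 area; liganded lysine if R≥4.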

[2] = target: T2, MAP2K3 Dual specificity mitogen-activated protein kinase (Homo sapiens, UniProt P46734); conditions: for isoTOP-ABPP ratio, lysine P46734_K93: 50 uM_231_sol_in vitro; for R value (DMSO/fragment) for probe 1 labeling: P46734_K93; for R value (DMSO/fragment) for probe 1 labeling / isoTOP-ABPP ratio (R) at liganded lysine P46734_K93 / isoTOP-ABPP reactivity ratio at lysine P46734_K93: 50 uM, in vitro; for R value (DMSO/fragment) for probe 1 labeling / isoTOP-ABPP reactivity ratio at lysine P46734_K93: 231 sol; for isoTOP-ABPP ratio (R) at liganded lysine P46734_K93: sol, 231
T2 construct: isoTOP-ABPP experiments performed in cell lysates (in vitro); endogenous in cells; host or cells: soluble proteome of human cancer cell lines (MDA-MB-231; Ramos and Jurkat also prepared)
T2 sequence (P46734 1-347): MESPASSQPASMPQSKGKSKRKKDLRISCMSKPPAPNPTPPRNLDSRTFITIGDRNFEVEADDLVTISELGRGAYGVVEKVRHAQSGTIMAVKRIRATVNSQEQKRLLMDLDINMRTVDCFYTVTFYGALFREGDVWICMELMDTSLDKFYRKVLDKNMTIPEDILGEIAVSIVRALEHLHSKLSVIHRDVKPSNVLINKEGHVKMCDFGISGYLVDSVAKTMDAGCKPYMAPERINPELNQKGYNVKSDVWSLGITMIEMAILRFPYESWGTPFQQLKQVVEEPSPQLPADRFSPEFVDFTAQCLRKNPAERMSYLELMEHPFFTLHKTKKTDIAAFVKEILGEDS
Summary of the method: as §1

STRN3 Striatin-3 = target: T3, STRN3 Striatin-3 (Homo sapiens, UniProt Q13033); conditions: for isoTOP-ABPP ratio, lysine Q13033_K755: 50 uM_231_sol_in vitro; for R value (DMSO/fragment) for probe 1 labeling: Q13033_K755; for R value (DMSO/fragment) for probe 1 labeling / isoTOP-ABPP ratio (R) at liganded lysine Q13033_K755 / isoTOP-ABPP reactivity ratio at lysine Q13033_K755: 50 uM, in vitro; for R value (DMSO/fragment) for probe 1 labeling / isoTOP-ABPP reactivity ratio at lysine Q13033_K755: 231 sol; for isoTOP-ABPP ratio (R) at liganded lysine Q13033_K755: sol, 231
T3 construct: isoTOP-ABPP experiments performed in cell lysates (in vitro); endogenous in cells; host or cells: soluble proteome of human cancer cell lines (MDA-MB-231, Ramos, Jurkat)
T3 sequence (Q13033 1-797): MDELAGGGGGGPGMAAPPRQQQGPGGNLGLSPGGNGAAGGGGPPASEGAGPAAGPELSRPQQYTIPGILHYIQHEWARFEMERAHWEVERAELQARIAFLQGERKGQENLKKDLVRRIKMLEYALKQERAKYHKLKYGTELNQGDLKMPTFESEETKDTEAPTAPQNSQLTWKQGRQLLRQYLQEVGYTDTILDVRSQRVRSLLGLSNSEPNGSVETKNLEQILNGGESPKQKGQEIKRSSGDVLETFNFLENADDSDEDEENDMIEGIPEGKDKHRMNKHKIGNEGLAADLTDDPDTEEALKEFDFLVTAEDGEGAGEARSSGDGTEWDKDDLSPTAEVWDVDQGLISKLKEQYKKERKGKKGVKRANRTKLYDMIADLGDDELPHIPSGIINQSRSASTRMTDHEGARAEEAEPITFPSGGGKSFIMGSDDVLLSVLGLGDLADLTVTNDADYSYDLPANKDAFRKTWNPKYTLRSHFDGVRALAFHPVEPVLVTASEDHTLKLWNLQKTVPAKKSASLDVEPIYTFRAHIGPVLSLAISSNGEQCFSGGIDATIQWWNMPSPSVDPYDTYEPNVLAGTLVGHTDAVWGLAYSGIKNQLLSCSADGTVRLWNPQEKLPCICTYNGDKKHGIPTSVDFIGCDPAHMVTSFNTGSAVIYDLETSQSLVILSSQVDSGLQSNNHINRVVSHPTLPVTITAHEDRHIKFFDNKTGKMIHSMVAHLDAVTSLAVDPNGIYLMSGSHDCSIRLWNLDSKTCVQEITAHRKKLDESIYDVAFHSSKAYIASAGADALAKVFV
Summary of the method: as §1

T1 sequence (Q14789 whole entry, the tested form may be a part): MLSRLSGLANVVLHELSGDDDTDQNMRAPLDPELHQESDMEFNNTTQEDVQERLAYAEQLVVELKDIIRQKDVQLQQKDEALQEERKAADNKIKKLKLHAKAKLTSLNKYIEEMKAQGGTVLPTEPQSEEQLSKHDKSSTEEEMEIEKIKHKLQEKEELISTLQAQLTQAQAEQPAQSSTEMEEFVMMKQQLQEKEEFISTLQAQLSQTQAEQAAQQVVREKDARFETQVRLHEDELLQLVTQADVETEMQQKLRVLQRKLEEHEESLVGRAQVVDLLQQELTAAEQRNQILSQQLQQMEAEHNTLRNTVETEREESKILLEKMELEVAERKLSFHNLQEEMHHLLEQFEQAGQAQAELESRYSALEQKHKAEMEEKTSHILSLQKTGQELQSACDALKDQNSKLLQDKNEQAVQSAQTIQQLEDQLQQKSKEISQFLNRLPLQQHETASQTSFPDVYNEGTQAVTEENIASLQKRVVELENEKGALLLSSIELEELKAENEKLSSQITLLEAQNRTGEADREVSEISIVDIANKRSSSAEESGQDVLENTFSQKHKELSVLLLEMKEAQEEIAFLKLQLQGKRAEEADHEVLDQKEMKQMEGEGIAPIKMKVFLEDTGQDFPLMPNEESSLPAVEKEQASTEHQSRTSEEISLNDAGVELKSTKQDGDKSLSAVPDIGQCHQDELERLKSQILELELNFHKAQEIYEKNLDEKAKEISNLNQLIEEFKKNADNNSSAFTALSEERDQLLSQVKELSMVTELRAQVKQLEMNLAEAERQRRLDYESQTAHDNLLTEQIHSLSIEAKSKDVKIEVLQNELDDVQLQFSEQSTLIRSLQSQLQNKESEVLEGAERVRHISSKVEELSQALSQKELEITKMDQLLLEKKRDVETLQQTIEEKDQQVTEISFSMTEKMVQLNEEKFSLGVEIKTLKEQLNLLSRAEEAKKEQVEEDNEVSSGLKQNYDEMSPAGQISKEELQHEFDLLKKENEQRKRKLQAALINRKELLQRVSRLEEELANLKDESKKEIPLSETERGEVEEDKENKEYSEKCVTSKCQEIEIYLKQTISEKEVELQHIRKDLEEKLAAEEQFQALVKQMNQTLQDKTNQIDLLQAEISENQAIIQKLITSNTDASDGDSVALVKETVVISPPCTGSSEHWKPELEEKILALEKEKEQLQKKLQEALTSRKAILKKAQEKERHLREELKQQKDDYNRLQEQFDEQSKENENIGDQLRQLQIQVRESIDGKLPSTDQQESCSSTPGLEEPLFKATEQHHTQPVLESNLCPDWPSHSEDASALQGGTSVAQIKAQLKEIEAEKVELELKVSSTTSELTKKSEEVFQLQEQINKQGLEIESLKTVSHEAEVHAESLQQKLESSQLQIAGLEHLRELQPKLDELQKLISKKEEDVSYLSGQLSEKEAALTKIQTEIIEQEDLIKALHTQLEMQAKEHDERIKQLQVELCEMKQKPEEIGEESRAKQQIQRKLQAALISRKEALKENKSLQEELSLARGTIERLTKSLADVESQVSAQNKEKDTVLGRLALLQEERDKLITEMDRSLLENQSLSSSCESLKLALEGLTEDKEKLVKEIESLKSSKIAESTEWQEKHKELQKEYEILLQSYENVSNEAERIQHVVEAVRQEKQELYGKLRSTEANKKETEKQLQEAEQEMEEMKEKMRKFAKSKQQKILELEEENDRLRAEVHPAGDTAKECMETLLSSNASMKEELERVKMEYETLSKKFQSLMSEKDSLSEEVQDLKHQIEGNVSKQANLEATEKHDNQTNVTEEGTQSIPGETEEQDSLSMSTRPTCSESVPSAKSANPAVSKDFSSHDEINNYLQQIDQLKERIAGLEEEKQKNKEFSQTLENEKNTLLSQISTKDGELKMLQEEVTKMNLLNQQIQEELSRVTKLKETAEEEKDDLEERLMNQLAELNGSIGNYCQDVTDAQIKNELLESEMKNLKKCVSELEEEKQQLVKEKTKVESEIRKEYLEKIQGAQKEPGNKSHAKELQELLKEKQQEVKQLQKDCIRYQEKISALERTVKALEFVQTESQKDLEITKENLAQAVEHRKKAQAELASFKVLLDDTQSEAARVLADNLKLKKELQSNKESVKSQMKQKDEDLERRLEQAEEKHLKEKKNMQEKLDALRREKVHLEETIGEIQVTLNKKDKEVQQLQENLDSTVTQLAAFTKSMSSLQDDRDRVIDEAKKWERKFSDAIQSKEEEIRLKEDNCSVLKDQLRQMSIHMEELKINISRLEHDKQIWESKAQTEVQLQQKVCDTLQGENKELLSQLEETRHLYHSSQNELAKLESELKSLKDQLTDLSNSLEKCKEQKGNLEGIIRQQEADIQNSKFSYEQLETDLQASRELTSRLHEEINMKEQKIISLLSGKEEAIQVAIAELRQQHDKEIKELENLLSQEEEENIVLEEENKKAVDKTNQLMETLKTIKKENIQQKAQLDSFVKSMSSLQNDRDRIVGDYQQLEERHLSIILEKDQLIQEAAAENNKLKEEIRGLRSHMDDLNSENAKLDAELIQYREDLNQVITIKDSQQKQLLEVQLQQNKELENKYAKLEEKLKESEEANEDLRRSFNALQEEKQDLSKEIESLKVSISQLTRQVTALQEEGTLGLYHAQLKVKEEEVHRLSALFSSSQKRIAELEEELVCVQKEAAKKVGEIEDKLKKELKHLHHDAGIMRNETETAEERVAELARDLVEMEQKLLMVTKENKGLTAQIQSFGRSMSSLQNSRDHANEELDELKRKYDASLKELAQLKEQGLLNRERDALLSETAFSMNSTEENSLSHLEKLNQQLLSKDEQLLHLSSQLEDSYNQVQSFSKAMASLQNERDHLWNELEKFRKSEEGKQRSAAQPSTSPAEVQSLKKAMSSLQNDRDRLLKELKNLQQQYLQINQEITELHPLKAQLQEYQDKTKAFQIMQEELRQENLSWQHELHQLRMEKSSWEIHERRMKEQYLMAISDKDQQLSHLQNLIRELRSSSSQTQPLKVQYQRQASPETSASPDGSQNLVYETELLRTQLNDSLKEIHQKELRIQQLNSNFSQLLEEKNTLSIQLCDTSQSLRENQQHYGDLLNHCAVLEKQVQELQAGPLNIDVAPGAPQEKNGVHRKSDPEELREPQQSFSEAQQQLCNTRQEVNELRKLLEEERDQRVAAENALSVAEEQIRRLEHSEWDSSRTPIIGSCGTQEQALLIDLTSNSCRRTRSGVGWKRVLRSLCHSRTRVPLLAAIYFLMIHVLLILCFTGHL

isoTOP-ABPP ratio, lysine Q14789_K103 [1]: 1.1
isoTOP-ABPP ratio, lysine P46734_K93 [2]: 1.1
isoTOP-ABPP ratio, lysine Q13033_K755 (STRN3 Striatin-3): 1.2
SMILES: O=C(Oc1c(F)c(F)cc(F)c1F)c1cc(C(F)(F)F)cc(C(F)(F)F)c1 [fragment 48, 2,3,5,6-Tetrafluorophenyl 3,5-bis(trifluoromethyl)benzoate]

R value (DMSO/fragment) for probe 1 labeling [1]: 0.9
R value (DMSO/fragment) for probe 1 labeling [2]: 0.9
R value (DMSO/fragment) for probe 1 labeling (STRN3 Striatin-3): 0.9
SMILES: O=C(CCc1cn(-c2ccccc2)nc1-c1ccccc1)Oc1c(F)c(F)c(F)c(F)c1F [fragment 19, Pentafluorophenyl 3-(1,3-diphenyl-1H-pyrazol-4-yl)propanoate]

SMILES: O=C(Oc1ccc([N+](=O)[O-])cc1[N+](=O)[O-])C(c1ccccc1)(c1ccccc1)c1ccccc1 [fragment 42, 2,4-Dinitrophenyl 2,2,2-triphenylacetate]
isoTOP-ABPP ratio (R) at liganded lysine Q14789_K103 [1]: 0.9
isoTOP-ABPP ratio (R) at liganded lysine P46734_K93 [2]: 0.9
isoTOP-ABPP ratio (R) at liganded lysine Q13033_K755 (STRN3 Striatin-3): 0.9

R value (DMSO/fragment) for probe 1 labeling [1]: 1.0
R value (DMSO/fragment) for probe 1 labeling [2]: 0.9
R value (DMSO/fragment) for probe 1 labeling (STRN3 Striatin-3): 0.9
SMILES: O=C(Oc1c(F)c(F)c(F)c(F)c1F)c1cc(C(F)(F)F)cc(C(F)(F)F)c1 [fragment 21, Pentafluorophenyl 3,5-bis(trifluoromethyl)benzoate]

SMILES: CC(C)(C)OC(=O)NCCCC(=O)Oc1ccc([N+](=O)[O-])cc1[N+](=O)[O-] [fragment 41, 2,4-Dinitrophenyl 4-((tert-butoxycarbonyl)amino)butanoate]
isoTOP-ABPP ratio (R) at liganded lysine Q14789_K103 [1]: 1.1
isoTOP-ABPP ratio (R) at liganded lysine P46734_K93 [2]: 0.9
isoTOP-ABPP ratio (R) at liganded lysine Q13033_K755 (STRN3 Striatin-3): 1.3

isoTOP-ABPP ratio, lysine Q14789_K103 [1]: 1.0
isoTOP-ABPP ratio, lysine P46734_K93 [2]: 1.1
isoTOP-ABPP ratio, lysine Q13033_K755 (STRN3 Striatin-3): 0.9
SMILES: O=C(Oc1c(F)c(F)c(C(F)(F)F)c(F)c1F)c1cc(C(F)(F)F)cc(C(F)(F)F)c1 [fragment 47, 2,3,5,6-Tetrafluoro-4-(trifluoromethyl)phenyl 3,5-bis(trifluoromethyl)benzoate]

SMILES: O=C(Oc1ccc([N+](=O)[O-])cc1[N+](=O)[O-])C1CCN(C(=O)OCc2ccccc2)CC1 [fragment 34, 1-Benzyl 4-(2,4-dinitrophenyl) piperidine-1,4-dicarboxylate]
isoTOP-ABPP ratio (R) at liganded lysine Q14789_K103 [1]: 0.9
isoTOP-ABPP ratio (R) at liganded lysine P46734_K93 [2]: 0.8
isoTOP-ABPP ratio (R) at liganded lysine Q13033_K755 (STRN3 Striatin-3): 3.7

SMILES: O=C(CCc1cn(-c2ccccc2)nc1-c1ccccc1)Oc1ccc([N+](=O)[O-])cc1[N+](=O)[O-] [fragment 29, 2,4-Dinitrophenyl 3-(1,3-diphenyl-1H-pyrazol-4-yl)propanoate]
isoTOP-ABPP reactivity ratio at lysine Q14789_K103 [1]: 1.1
isoTOP-ABPP reactivity ratio at lysine P46734_K93 [2]: 0.9
isoTOP-ABPP reactivity ratio at lysine Q13033_K755 (STRN3 Striatin-3): 1.1

isoTOP-ABPP reactivity ratio at lysine Q14789_K103 [1]: 1.1
isoTOP-ABPP reactivity ratio at lysine P46734_K93 [2]: 1.1
isoTOP-ABPP reactivity ratio at lysine Q13033_K755 (STRN3 Striatin-3): 1.0
SMILES: O=C(CCc1coc2cc(F)ccc2c1=O)Oc1c(F)c(F)c(F)c(F)c1F [fragment 26, Pentafluorophenyl 3-(7-fluoro-4-oxo-4H-chromen-3-yl)propanoate]

isoTOP-ABPP ratio, lysine Q14789_K103 [1]: 0.9
isoTOP-ABPP ratio, lysine P46734_K93 [2]: 1.0
isoTOP-ABPP ratio, lysine Q13033_K755 (STRN3 Striatin-3): 0.9
SMILES: NC(=O)c1cc(C(F)(F)F)cc(C(F)(F)F)c1 [fragment 51, reference compound]

isoTOP-ABPP reactivity ratio at lysine Q14789_K103 [1]: 1.3
isoTOP-ABPP reactivity ratio at lysine Q13033_K755 (STRN3 Striatin-3): 1.0
SMILES: O=C(CN1C(=O)c2ccccc2C1=O)Oc1c(F)c(F)c(F)c(F)c1F [fragment 27, Pentafluorophenyl 2-(1,3-dioxoisoindolin-2-yl)acetate]

SMILES: Cn1cc(CC(=O)Oc2ccc([N+](=O)[O-])cc2[N+](=O)[O-])c2ccccc21 [fragment 32, 2,4-Dinitrophenyl 2-(1-methyl-1H-indol-3-yl)acetate]
isoTOP-ABPP reactivity ratio at lysine Q14789_K103 [1]: 7.0
isoTOP-ABPP reactivity ratio at lysine P46734_K93 [2]: 1.4
isoTOP-ABPP reactivity ratio at lysine Q13033_K755 (STRN3 Striatin-3): 2.7
